These results are taken from paper PMC4139099 (Biochimica et biophysica acta, 2013).

Data set [1] concerns murine cerebrocortical neuron cells. The experiment in a line: Veratridine-induced neuronal Ca2+ influx. Type of data set: cell-based. The conditions noted are these: data not shown.
The target in data set [2] is T1, chymotrypsin (Bos taurus, UniProt P00766). The experiment in a line: Chymotrypsin inhibitory assay. Type of data set: biochemical. The conditions noted are these: up to the concentration of 100 μg/mL.
Data set [3] addresses T2, trypsin (Sus scrofa, UniProt P00761). The experiment in a line: Trypsin inhibitory assay. The data set is classed as biochemical. To be noted: up to the concentration of 100 μg/mL.
Data set [4] deals with proteinase K (Parengyodontium album, UniProt P06873). The experiment in a line: Proteolytic and thermal stability against proteinase K. To be noted: proteinase K from Tritirachium album; 50 °C, up to 48 h. The data set is classed as in vitro ADME.
Sequence of proteinase K (P06873 106-384): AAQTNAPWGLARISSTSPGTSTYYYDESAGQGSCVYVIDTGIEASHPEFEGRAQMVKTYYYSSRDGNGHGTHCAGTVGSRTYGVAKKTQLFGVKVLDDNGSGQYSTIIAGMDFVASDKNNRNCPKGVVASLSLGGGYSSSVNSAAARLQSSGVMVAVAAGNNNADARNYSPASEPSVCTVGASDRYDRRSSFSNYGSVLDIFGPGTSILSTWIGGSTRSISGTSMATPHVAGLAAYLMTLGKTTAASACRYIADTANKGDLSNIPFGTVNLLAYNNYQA
Data set [5] concerns mice. The experiment in a line: Toxicity and behavior in mice. To be noted: i.p. 40 μg/g. Type of data set: in vivo.
The test system of data set [6] is chicks. The experiment in a line: Toxicity and behavior in chicks. Type of data set: in vivo. To be noted: i.c.v. 60 μg/g.
A short description of data set [7]: Solubility in water or low pH buffers. To be noted: pure water or low pH buffers.
In data set [8] the target is T3, thermolysin (Bacillus thermoproteolyticus, UniProt P00800).
T3 sequence (P00800 233-548): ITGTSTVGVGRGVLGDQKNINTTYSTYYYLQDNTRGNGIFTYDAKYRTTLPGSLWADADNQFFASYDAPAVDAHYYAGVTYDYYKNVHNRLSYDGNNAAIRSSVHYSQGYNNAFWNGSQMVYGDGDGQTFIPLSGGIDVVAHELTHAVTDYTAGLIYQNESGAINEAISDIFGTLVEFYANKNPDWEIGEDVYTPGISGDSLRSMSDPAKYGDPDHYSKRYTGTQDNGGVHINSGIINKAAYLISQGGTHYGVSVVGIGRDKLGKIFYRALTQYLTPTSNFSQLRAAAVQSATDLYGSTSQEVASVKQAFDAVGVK
The experiment in a line: Proteolytic and thermal stability against thermolysin. The data set is classed as in vitro ADME. The conditions noted are these: thermolysin from Bacillus thermoproteolyticus Rokko; 65 °C, up to 12 h.

Data set [9] concerns the target T2, trypsin. To be noted: cited from earlier work.
The target of data set [10] is pepsin (Sus scrofa, UniProt P00791). To be noted: cited from earlier work.
Sequence of pepsin (P00791 60-385): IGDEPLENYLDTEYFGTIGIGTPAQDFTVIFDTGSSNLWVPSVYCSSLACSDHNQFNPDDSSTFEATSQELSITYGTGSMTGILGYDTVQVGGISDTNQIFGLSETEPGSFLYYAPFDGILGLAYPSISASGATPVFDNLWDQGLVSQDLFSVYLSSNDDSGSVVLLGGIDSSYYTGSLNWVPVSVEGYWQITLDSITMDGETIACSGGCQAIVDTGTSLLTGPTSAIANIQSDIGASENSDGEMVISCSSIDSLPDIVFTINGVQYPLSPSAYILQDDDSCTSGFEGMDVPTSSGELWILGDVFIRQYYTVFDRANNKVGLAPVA
Data set [11] concerns the target T1, chymotrypsin. The conditions noted are these: cited from earlier work.

Where no end group is shown, it is not given here.

T2 sequence (P00761 9-231): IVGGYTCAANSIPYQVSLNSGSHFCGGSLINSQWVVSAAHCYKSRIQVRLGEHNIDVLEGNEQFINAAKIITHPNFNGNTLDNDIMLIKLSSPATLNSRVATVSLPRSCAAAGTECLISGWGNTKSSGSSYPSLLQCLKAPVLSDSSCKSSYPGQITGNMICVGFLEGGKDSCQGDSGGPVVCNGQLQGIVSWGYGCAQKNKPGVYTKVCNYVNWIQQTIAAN

With asteropsin C [ASPC], the “effect on neuronal Ca2+ influx” value in data set [1] is listed as “no effect”. In addition, the “effect in chymotrypsin inhibitory assay” value in data set [2] is recorded as “no effects”. For the same substance, the “effect in trypsin inhibitory assay” value in data set [3] is listed as “no effects”. Further, the “proteolytic and thermal stability against proteinase K” value in [4] is “exceptional proteolytic and thermal stability”. Moreover, the “toxic effects or behavior changes in mice” value in data set [5] is given as “no toxic effects or behavior changes”. For the same substance, the “toxic effects or behavior changes in chicks” value in data set [6] is listed as “no toxic effects or behavior changes”. Also, the solubility entry in data set [7] was “virtually insoluble”.

On to asteropsin A [ASPA], for which, in [2], the “effect in chymotrypsin inhibitory assay” value is on record as “no effects”. Moreover, the “effect in trypsin inhibitory assay” value in data set [3] was “no effects”. Moreover, in data set [4], the “proteolytic and thermal stability against proteinase K” value was “exceptional proteolytic and thermal stability”. For the same substance, in data set [8], the “proteolytic and thermal stability against thermolysin” value was “exceptional proteolytic and thermal stability”. Besides, the “toxic effects or behavior changes in mice” value in [5] is on record as “no toxic effects or behavior changes”. Further, the “toxic effects or behavior changes in chicks” value in [6] was “no toxic effects or behavior changes”.

Regarding ω-conotoxin MVIIA [ziconotide], the stability to trypsin result in data set [9] is listed as “unstable”.

Turning to “kalata B1 (GLPVCGETCVGGTCNTPGCTCSWPVCTRN; not fully specified; ends and bridges not checked; UniProt P56254 89-117, looked up)”, the stability towards pepsin result in [10] was “exhibits stability”. In data set [9], the stability towards trypsin result is listed as “exhibits stability”. In data set [11], the stability towards chymotrypsin entry is “exhibits stability”.
